In ChEMBL document CHEMBL3352479, “Discovery and SAR study of 2-(4-pyridylamino)thieno[3,2-d]pyrimidin-4(3H)-ones as soluble and highly potent PDE7 inhibitors” (Bioorg Med Chem Lett, 2015) one finds solubility and IC50 data, which are given here for 20 compounds.

The structures appear in SMILES notation. ≈ marks a conversion by molar mass, not a printed value.

Data set [1] can be described thus: Solubility in phosphate buffer at pH 6.8. In kind it is physicochemical.
The target of data set [2] is 3',5'-cyclic-AMP phosphodiesterase 4B (Homo sapiens, UniProt Q07343). Kind of data set: Inhibition of PDE4B (unknown origin).
Sequence of 3',5'-cyclic-AMP phosphodiesterase 4B (Q07343 whole entry): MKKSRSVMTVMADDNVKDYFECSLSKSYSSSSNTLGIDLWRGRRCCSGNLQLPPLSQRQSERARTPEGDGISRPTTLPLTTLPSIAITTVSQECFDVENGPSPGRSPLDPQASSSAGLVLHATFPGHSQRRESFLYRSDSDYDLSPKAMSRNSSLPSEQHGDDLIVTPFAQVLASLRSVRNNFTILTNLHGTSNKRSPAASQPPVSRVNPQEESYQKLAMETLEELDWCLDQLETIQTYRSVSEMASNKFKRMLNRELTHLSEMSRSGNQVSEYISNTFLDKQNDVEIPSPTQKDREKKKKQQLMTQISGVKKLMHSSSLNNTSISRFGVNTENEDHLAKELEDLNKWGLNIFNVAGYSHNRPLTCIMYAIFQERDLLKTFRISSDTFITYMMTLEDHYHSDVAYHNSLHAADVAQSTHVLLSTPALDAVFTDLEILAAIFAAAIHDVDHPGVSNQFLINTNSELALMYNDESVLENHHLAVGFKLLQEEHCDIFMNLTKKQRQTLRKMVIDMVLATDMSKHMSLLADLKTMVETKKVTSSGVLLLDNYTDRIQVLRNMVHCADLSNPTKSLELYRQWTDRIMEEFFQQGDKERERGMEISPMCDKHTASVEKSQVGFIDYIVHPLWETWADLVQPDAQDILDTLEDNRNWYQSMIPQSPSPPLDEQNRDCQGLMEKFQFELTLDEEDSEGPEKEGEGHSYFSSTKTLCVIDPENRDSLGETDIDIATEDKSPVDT
Data set [3] addresses High affinity 3',5'-cyclic-AMP phosphodiesterase 7A (Homo sapiens, UniProt Q13946). The data set is described as follows: Inhibition of PDE7A (unknown origin).
Another data set concerns Lymphocyte. The data set is described as follows: Inhibition of IL2 production from mouse activated lymphocytes. The format is functional, cell-based.
Data set [4] concerns the target cGMP-specific 3',5'-cyclic phosphodiesterase (Homo sapiens, UniProt O76074). Kind of data set: Inhibition of PDE5A (unknown origin).
In data set [5] the target is cGMP-inhibited 3',5'-cyclic phosphodiesterase 3A (Homo sapiens, UniProt Q14432). The data set is described as follows: Inhibition of PDE3A (unknown origin).
Sequence of cGMP-inhibited 3',5'-cyclic phosphodiesterase 3A (Q14432 whole entry): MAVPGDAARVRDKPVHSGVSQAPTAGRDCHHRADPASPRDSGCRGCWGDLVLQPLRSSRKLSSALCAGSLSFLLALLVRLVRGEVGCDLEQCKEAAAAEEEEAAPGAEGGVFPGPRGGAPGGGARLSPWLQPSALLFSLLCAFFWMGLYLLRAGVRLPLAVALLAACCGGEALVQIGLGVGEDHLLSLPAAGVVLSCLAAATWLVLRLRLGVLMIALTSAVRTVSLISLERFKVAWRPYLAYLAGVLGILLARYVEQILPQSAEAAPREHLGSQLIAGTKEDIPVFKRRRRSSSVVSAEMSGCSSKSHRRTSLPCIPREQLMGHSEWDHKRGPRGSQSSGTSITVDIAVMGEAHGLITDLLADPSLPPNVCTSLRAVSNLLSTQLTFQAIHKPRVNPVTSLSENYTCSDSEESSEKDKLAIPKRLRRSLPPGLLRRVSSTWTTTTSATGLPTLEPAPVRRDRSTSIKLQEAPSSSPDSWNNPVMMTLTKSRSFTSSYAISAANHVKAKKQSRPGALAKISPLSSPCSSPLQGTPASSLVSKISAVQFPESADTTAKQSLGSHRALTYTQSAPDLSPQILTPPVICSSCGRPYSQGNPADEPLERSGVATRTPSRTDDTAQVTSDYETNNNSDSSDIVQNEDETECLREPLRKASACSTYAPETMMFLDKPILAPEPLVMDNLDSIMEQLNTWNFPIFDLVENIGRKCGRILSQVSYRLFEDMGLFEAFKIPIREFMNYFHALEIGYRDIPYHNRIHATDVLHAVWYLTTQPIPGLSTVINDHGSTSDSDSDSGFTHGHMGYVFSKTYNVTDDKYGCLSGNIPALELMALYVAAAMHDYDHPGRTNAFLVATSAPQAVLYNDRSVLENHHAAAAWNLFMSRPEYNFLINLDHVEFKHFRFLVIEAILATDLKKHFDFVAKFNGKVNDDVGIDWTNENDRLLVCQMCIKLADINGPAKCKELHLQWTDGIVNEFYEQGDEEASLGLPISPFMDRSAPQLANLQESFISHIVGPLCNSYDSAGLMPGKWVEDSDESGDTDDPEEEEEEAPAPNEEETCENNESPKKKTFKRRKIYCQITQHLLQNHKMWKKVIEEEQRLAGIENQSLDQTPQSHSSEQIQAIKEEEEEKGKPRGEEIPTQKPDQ

Sequence of High affinity 3',5'-cyclic-AMP phosphodiesterase 7A (Q13946 whole entry): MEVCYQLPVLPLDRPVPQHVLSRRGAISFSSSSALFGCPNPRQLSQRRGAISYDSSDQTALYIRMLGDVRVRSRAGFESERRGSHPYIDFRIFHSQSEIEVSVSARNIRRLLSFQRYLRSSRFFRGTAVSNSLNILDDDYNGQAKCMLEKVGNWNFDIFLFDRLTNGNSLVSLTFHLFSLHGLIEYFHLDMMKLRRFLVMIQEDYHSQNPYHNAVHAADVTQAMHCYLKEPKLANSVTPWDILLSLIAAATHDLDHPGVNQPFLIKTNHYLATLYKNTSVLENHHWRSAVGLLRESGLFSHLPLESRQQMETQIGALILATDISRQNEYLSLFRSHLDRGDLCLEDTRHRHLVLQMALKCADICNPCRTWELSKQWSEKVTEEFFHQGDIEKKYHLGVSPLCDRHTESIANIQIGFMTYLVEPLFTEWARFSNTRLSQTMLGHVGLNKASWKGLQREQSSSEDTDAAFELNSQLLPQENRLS

In general, solubility refers to the concentration that dissolves in the medium under given conditions. Low values mean little dissolved substance, high ones much dissolved substance. `CCn1c(NC2CCCC2)nc2ccsc2c1=O` showed a solubility in data set [1] of 12.1 µg/mL (≈ 45.9 µM).
One may read the IC50 as the concentration needed to halve the response being measured. Low readings indicate greater potency, high ones weaker potency. Consider `CCn1c(Nc2ccccc2)nc2ccsc2c1=O`, for which the figures for the IC50 in data set [2] and in data set [3] were 7400 nM and 290 nM, respectively. The same compound had a solubility in data set [1] of 19.5 µg/mL (≈ 71.9 µM).
Regarding `CCn1c(Nc2ccccc2C)nc2ccsc2c1=O`, the IC50 was 4300 nM in data set [2] and 88 nM in data set [3]. In data set [1], this compound returned a solubility of 10.1 µg/mL (≈ 35.4 µM).
For the compound `CCn1c(Nc2cccc(C)c2)nc2ccsc2c1=O`, the IC50 in data set [3] was greater than 1000 nM. In data set [1], this compound returned a solubility of 65.5 µg/mL (≈ 230 µM).
With `CCn1c(Nc2ccc(C)cc2)nc2ccsc2c1=O`, in data set [3], the IC50 was greater than 1000 nM. Besides, the solubility in data set [1] was determined as 84 µg/mL (≈ 294 µM).
For `CCc1ccccc1Nc1nc2ccsc2c(=O)n1CC`, in that order: greater than 1000 nM and 1.9 µg/mL (≈ 6.35 µM).
On the same counts, the results for `CCn1c(Nc2ccccc2C#N)nc2ccsc2c1=O` are 2300 nM and 0.4 µg/mL (≈ 1.35 µM).
Take `CCn1c(Nc2ccccc2F)nc2ccsc2c1=O`: the IC50 stood at 2700 nM in data set [2] and 61 nM in data set [3]. Further, in data set [1], the concentration in solution (solubility) was 26.1 µg/mL (≈ 90.2 µM).
In the case of `CCn1c(Nc2ccccc2Cl)nc2ccsc2c1=O`, the IC50 was found to be 3000 nM in data set [2] and 41 nM in data set [3]. In data set [1], this compound showed a solubility of 6.3 µg/mL (≈ 20.6 µM).
Regarding `CCn1c(Nc2cccnc2)nc2ccsc2c1=O`, in data set [3], the IC50 is greater than 1000 nM. The compound further displayed a solubility in data set [1] of 41.6 µg/mL (≈ 153 µM).
As for `CCn1c(Nc2ccncc2)nc2ccsc2c1=O`, the figures for the IC50 in data set [2] and in data set [3] were 30000 nM and 630 nM, respectively. In data set [1], the solubility worked out at 111 µg/mL (≈ 408 µM).
For `CCn1c(Nc2ccncc2F)nc2ccsc2c1=O`, in that order: 5300 nM, 60 nM and 120 µg/mL (≈ 413 µM).
On the same counts, the results for `CCn1c(Nc2ccncc2F)nc2c(C#N)csc2c1=O` are 670 nM, 25 nM and 3.5 µg/mL (≈ 11.1 µM).
Take `CCn1c(Nc2ccncc2F)nc2c(C(C)O)csc2c1=O` (stereo not given): the IC50 is 1700 nM in the data set on Lymphocyte, 610 nM in data set [2] and 8.7 nM in data set [3]. Also, the concentration in solution in data set [1] (solubility) was 5.4 µg/mL (≈ 16.1 µM).
Turning to `CCn1c(Nc2ccncc2F)nc2c(C(C)(C)O)csc2c1=O`, the figures for the IC50 (with Lymphocyte; in data set [2]; in data set [3]) were 260 nM, 56 nM and 2.1 nM, respectively. In data set [1], the solubility was 17.9 µg/mL (≈ 51.4 µM).
On the same counts, the results for `CCn1c(Nc2ccncc2F)nc2c(CCCO)csc2c1=O` are 480 nM, 180 nM, 3.9 nM and 31.3 µg/mL (≈ 89.8 µM).
Consider `CCn1c(Nc2ccncc2F)nc2c(C3CCN(C(=O)OC)CC3)csc2c1=O`, for which the values for the IC50 in data set [2] and in data set [3] were 310 nM and 1.1 nM, respectively. Besides, the concentration in solution in data set [1] (solubility) was 0.9 µg/mL (≈ 2.09 µM).
On to `CCn1c(Nc2ccncc2F)nc2c(C3CCCN(C(=O)OC)C3)csc2c1=O` (stereo not given), for which the IC50 in the data set on Lymphocyte is 160 nM; in data set [4] it was 520 nM; in data set [2] it was 280 nM; in data set [3], 0.68 nM; in data set [5] it was 29 nM. In data set [1], this compound gave a solubility of 48.9 µg/mL (≈ 113 µM).
For `CCn1c(Nc2ccncc2F)nc2c(C3CCCN(C(=O)C(C)(C)CO)C3)csc2c1=O` (stereo not given), the IC50 in the data set with Lymphocyte is 130 nM; in data set [4] it was greater than 10000 nM; in data set [2], 180 nM; in data set [3], 1.2 nM; in data set [5], 37 nM. For the same compound, the solubility in data set [1] was found to be 22.7 µg/mL (≈ 47.9 µM).
As for `CCn1c(Nc2ccncc2F)nc2c(C3CCCN(C(=O)C4(C#N)CC4)C3)csc2c1=O` (stereo not given), the IC50 in the data set on Lymphocyte was less than 100 nM; in data set [4], 2900 nM; in data set [2], 20 nM; in data set [3], 0.32 nM; in data set [5] it was 17 nM. In data set [1], the concentration in solution (solubility) came to 28.1 µg/mL (≈ 60.2 µM).
